Here are results for four compounds from patent US20030232741A1, “Methods of treatment of glaucoma and other conditions mediated by NOS-2 expression via inhibition of the EGFR pathway” (Washington University, priority 2002, published 2003).

Format in all cases: cell-based
One experiment concerns NOS-2 mRNA. The experiment can be described thus: NOS-2 mRNA induction in human ONH astrocytes (semi-quantitative RT-PCR). The conditions noted are these: AG82 7 μM, SB202190 380 nM, SN-50 50 μg/ml; for NOS-2 mRNA induced by elevated hydrostatic pressure: elevated hydrostatic pressure 12 hrs, AG18 40 μM. The procedure:
(§1) Twelve normal human (aged 22-51) eyes were obtained within 24 hrs after death. Lamina cribrosa astrocytes were obtained as described previously.^5 The second-passage cell cultures, which had over 95% cells positive for GFAP, were grown to 60-80% confluency and placed in serum free medium for one week before use.
Astrocytes grown on coverslips were placed under sterile, disposable polypropylene cylinders 6 cm high and 3 cm in diameter. Hydrostatic pressure was elevated by 5 cm of serum free medium, conditioned at 37° C. in a 5% CO2 humidified atmosphere. As control, the same number of cells on a coverslip was placed in 140 mm Petri dishes with 0.3 cm height of media in a volume equivalent to that used in the hydrostatic pressure experiments. Both pressurized and control cultures were maintained in a tissue culture incubator at 37° C. with a 5% CO2 humidified atmosphere for various periods. AG82 or AG18 (Calbiochem, Darmstadt, Germany) was added to the cell media 30 min before and during the period of exposure to elevated hydrostatic pressure or IL-1β/IFN-γ at final concentrations of 7 μM or 40 μM, respectively. SB202190 (Calbiochem, Darmstadt, Germany) was added to the cell media 30 min before and during the period of exposure to elevated hydrostatic pressure or IL-1β/IFN-γ at a final concentrations of 380 nM. SN-50 (BioMol, Plymouth Meeting, Pa.) was added to the cell media 30 min before and during the period of exposure to elevated hydrostatic pressure or IL-1β/IFN-γ at a final concentrations of 50 μg/ml. Monoclonal anti-EGFR antibody (Santa Cruz Biotechnology Inc, Santa Cruz, Calif.) which recognizes an EGF receptor cell surface epitope and is an antagonist of EGFR, was added to the cell media 12 hrs before and during the period of exposure to elevated hydrostatic pressure or EGF (100 ng/ml)(Sigma-Aldrich Corp., St. Louis, Mo.) at a working dilution of 1:20. […]
Semi-quantitative RT-PCR was performed as published previously.^8

A further experiment concerns NOS-2. The experiment is described as follows: NOS-2 protein induction in human ONH astrocytes (immunoblot). The conditions noted are these: for NOS-2 protein induced by elevated hydrostatic pressure: elevated hydrostatic pressure 48 hrs, AG18 40 μM, anti-EGFR antibody 1:20; for induction of NOS-2 in response to cytokines (protein/mRNA not specified): IL-1β/IFN-γ. The procedure:
as §1
Astrocytes grown on coverslips were placed under sterile, disposable polypropylene cylinders 6 cm high and 3 cm in diameter. Hydrostatic pressure was elevated by 5 cm of serum free medium, conditioned at 37° C. in a 5% CO2 humidified atmosphere. As control, the same number of cells on a coverslip was placed in 140 mm Petri dishes with 0.3 cm height of media in a volume equivalent to that used in the hydrostatic pressure experiments. Both pressurized and control cultures were maintained in a tissue culture incubator at 37° C. with a 5% CO2 humidified atmosphere for various periods. AG82 or AG18 (Calbiochem, Darmstadt, Germany) was added to the cell media 30 min before and during the period of exposure to elevated hydrostatic pressure or IL-1β/IFN-γ at final concentrations of 7 μM or 40 μM, respectively. SB202190 (Calbiochem, Darmstadt, Germany) was added to the cell media 30 min before and during the period of exposure to elevated hydrostatic pressure or IL-1β/IFN-γ at a final concentrations of 380 nM. SN-50 (BioMol, Plymouth Meeting, Pa.) was added to the cell media 30 min before and during the period of exposure to elevated hydrostatic pressure or IL-1β/IFN-γ at a final concentrations of 50 μg/ml. Monoclonal anti-EGFR antibody (Santa Cruz Biotechnology Inc, Santa Cruz, Calif.) which recognizes an EGF receptor cell surface epitope and is an antagonist of EGFR, was added to the cell media 12 hrs before and during the period of exposure to elevated hydrostatic pressure or EGF (100 ng/ml)(Sigma-Aldrich Corp., St. Louis, Mo.) at a working dilution of 1:20. Astrocytes were stimulated by the addition to the media of 200 U/ml human IFN-γ (Sigma-Aldrich Corp, Saint Louis, Mo.) and 10 ng/ml human IL-1β (Sigma-Aldrich Corp, Saint Louis, Mo.) for 12 or 48 hours.
NOS-2 immunoblot was as described previously.^5 For EGFR and p-EGFR immunoblot,^11 astrocytes were lysed in buffer (20 mm HEPES, pH 7.0, 10 mM KCI, 2 mM MgCl2, 0.5% Nonidet P40, 1 mM Na3VO4, 1 mM PMSF, 0.15 U ml^−1 aprotinin) and homogenized. The non-nuclear and nuclear fractions were separated by centrifugation at 1,500 g for 5 min to sediment the nuclei. The nuclear pellet was washed with the lysis buffer and resuspended in the same buffer containing 0.5 M NaCl to extract nuclear proteins. 20 μg protein of each non-nuclear fraction and 40 μg of each nuclear fraction were separated by 10% SDS-PAGE and transferred to a nitrocellulose membrane. Immunoblotting was performed with specific primary antibody against EGFR and p-EGFR followed by peroxidase-conjugated secondary antibody (Santa Cruz Biotechnology Inc, Santa Cruz, Calif.) and imaged by the enhanced chemiluminescence detection system (Amersham Life Science Inc, Arlington Heights, Ill.).
Background: Immunoblotting shows a protein as a band on a membrane.

Experiment [1] addresses T1, p-EGFR (Homo sapiens, UniProt P00533). The experiment is described as follows: Immunoblot for p-EGFR in nuclear and non-nuclear fractions of human ONH astrocytes exposed to elevated hydrostatic pressure. The conditions noted are these: elevated hydrostatic pressure 10 min; AG82 7 μM added 30 min before and during.
Method: NOS-2 immunoblot was as described previously.^5 For EGFR and p-EGFR immunoblot,^11 astrocytes were lysed in buffer (20 mm HEPES, pH 7.0, 10 mM KCI, 2 mM MgCl2, 0.5% Nonidet P40, 1 mM Na3VO4, 1 mM PMSF, 0.15 U ml^−1 aprotinin) and homogenized. The non-nuclear and nuclear fractions were separated by centrifugation at 1,500 g for 5 min to sediment the nuclei. […]
For experiment [2], the target named is T1, p-EGFR. The experiment can be described thus: Immunocytochemistry for p-EGFR in cultured human ONH astrocytes exposed to elevated hydrostatic pressure. To be noted: elevated hydrostatic pressure 10 min; AG82 7 μM added 30 min before and during.
Method: Astrocytes grown on coverslips were placed under sterile, disposable polypropylene cylinders 6 cm high and 3 cm in diameter. Hydrostatic pressure was elevated by 5 cm of serum free medium, conditioned at 37° C. in a 5% CO2 humidified atmosphere. As control, the same number of cells on a coverslip was placed in 140 mm Petri dishes with 0.3 cm height of media in a volume equivalent to that used in the hydrostatic pressure experiments. Both pressurized and control cultures were maintained in a tissue culture incubator at 37° C. with a 5% CO2 humidified atmosphere for various periods. […]
As described previously,^5 cells grown on coverslips were fixed in 4% paraformaldehyde, incubated with specific primary antibodies against EGFR, p-EGFR or GFAP and appropriate fluorescent conjugated secondary antibodies (Molecular Probes Inc., Eugene, Ore), and visualized by fluorescence microscopy. […]
The mark [3] stands for this setting: AG82 7 μM, SB202190 380 nM, SN-50 50 μg/ml.

“Also recorded” adds a separate entry of the source.

T1 sequence (P00533 25-1210): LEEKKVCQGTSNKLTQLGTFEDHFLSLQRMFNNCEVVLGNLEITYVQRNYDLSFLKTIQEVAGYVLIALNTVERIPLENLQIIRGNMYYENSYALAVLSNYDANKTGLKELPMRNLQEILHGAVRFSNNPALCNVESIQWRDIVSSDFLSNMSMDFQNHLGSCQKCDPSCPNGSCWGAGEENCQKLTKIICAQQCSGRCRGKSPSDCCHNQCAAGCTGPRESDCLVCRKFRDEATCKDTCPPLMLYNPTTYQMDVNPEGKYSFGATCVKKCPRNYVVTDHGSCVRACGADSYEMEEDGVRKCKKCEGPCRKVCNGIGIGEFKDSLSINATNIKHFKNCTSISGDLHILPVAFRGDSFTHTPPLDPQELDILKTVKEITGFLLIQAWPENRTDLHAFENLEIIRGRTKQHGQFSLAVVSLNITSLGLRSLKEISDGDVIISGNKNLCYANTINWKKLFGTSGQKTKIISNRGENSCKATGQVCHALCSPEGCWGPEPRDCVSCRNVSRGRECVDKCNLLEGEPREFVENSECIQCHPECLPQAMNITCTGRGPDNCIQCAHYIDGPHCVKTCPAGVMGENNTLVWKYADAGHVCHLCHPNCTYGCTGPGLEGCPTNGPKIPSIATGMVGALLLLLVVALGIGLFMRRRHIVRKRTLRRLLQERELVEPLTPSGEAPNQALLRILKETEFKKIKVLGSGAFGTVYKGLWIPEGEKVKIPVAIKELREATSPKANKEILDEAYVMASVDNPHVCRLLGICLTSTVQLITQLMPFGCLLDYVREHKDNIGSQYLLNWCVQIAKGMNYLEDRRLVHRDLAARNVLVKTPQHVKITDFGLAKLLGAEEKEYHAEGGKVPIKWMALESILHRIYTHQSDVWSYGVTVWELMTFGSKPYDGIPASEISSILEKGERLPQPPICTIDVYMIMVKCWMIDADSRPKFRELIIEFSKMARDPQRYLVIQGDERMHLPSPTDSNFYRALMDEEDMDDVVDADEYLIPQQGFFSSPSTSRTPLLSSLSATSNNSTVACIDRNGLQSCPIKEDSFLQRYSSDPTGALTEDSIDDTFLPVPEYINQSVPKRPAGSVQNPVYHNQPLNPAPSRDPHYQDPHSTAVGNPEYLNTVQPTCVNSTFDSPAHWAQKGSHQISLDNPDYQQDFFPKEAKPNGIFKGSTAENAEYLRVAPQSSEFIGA

`N#CC(C#N)=Cc1ccc(O)c(O)c1` [AG18, α-Cyano-(3,4-dihydroxy)cinnamonitrile]: the “NOS-2 mRNA induced by elevated hydrostatic pressure” value in the experiment on NOS-2 mRNA was “prevented both the increased protein level and the mRNA level of NOS-2; also recorded: significantly blocked the appearances of NOS-2 mRNA and protein”. In addition, the “NOS-2 protein induced by elevated hydrostatic pressure” value in the experiment on NOS-2 (setting [3]) is “prevented both the increased protein level and the mRNA level of NOS-2; also recorded: significantly blocked the appearances of NOS-2 mRNA and protein”.

Take `Oc1ccc(-c2nc(-c3ccncc3)c(-c3ccc(F)cc3)[nH]2)cc1` [SD202190]: in the experiment on NOS-2 mRNA (200 U/ml IFN-γ and 10 ng/ml IL-1β, 12 hours), the “NOS-2 mRNA induced by cytokines” value was “affects the transcription of the NOS-2 gene to mRNA in response to cytokines”. Besides, the “NOS-2 protein induced by cytokines” value in the experiment with NOS-2 (200 U/ml IFN-γ and 10 ng/ml IL-1β, 48 hours, AG82 7 μM, SB202190 380 nM, SN-50 50 μg/ml) is “significantly blocked the appearance of NOS-2 protein in response to cytokine stimulation”. The “induction of NOS-2 in response to cytokines (protein/mRNA not specified)” value in the experiment with NOS-2 (human optic nerve astrocytes) is listed as “blocks the induction of NOS-2 in human optic nerve astrocytes in response to cytokines”.

For the compound `N#CC(C#N)=Cc1cc(O)c(O)c(O)c1` [AG82, α-Cyano-(3,4,5-trihydroxy)cinnamonitrile], the “tyrosine phosphorylation of EGFR (p-EGFR) in non-nuclear and nuclear extracts by immunoblot” value on p-EGFR [1] was “significantly blocked the tyrosine phosphorylation of EGFR in both non-nuclear and nuclear extracts; also recorded: completely prevents the increase in p-EGFR in both nuclear and non-nuclear fractions”. Further, the “NOS-2 mRNA induced by elevated hydrostatic pressure” value in the experiment on NOS-2 mRNA is “almost completely prevented; also recorded: affects the transcription of the NOS-2 gene to mRNA in response to elevated hydrostatic pressure; also recorded: significantly blocked the appearances of NOS-2 mRNA and protein”. Moreover, the “NOS-2 protein induced by elevated hydrostatic pressure” value with NOS-2 (setting [3]) is “significantly prevented the increased protein level of NOS-2; also recorded: significantly blocked the appearance of NOS-2 protein in response to elevated hydrostatic pressure; also recorded: significantly blocked the appearances of NOS-2 mRNA and protein”. In addition, the “induction of NOS-2 in response to cytokines (protein/mRNA not specified)” value in the experiment on NOS-2 (human optic nerve astrocytes) is on record as “does not inhibit the induction of NOS-2 in response to cytokines”. Also, in the experiment with NOS-2 (human optic nerve astrocytes, elevated hydrostatic pressure), the “induction of NOS-2 in response to elevated hydrostatic pressure (protein/mRNA not specified)” value was “blocks induction of NOS-2 in response to elevated hydrostatic pressure”. Besides, the “immunocytochemical labeling for p-EGFR in response to elevated hydrostatic pressure” value at p-EGFR [2] is reported as “blocked the increased immunocytochemical labeling for p-EGFR in the cytoplasm in response to elevated hydrostatic pressure and, most notably, there was no nuclear labeling for p-EGFR; also recorded: prevents the nuclear labeling for p-EGFR”.

Turning to “EGF: epidermal growth factor, EGFR ligand (Sigma-Aldrich), added at 100 ng/ml (NSDSECPLSHDGYCLHDGVCMYIEALDKYACNCVVGYIGERCQYRDLKWWELR; UniProt P01133 971-1023, looked up)”, the “NOS-2 protein level in astrocytes treated with EGF (Western blot and immunocytochemistry)” value in the experiment with NOS-2 (100 ng/ml EGF in culture medium for 48 hrs, versus non-treated astrocytes) was “significantly increased; also recorded: increased labeling for NOS-2 and GFAP”.
